Reference: patent US6441029B1, “Method of suppressing tumor growth with combinations of isoprenoids and statins” (Wisconsin Alumni Research Foundation, priority 1997, dated 2002)
Several values for one entry are separate records, joined by “and”; a condition that tells them apart may be missing. Equal entries are not always repeated. Where two headings read alike, the source gives them in different places. Marks after values point to notes of the source that are not given here.

Legend:
[1] = test system: Murine B16(F10) melanoma cells; experiment: IC50 determinations: net increase in 48 hour melanoma cell count; format: cell-based
Experimental: (§1) Cultures, seeded with 1-1.5×10^5 cells, were incubated for 24 hours at 37° C. in a humidified atmosphere of 5% CO2. Isoprenoids, dissolved in absolute ethanol, were added at 24 hours (0 time); all cultures contained 5 mL ethanol/L ([…]). The cultures were incubated for an additional 48 hours. The media was removed and the monolayers were washed twice with Hanks' Balanced Salt Solution (Sigma) and then incubated with a trypsin-EDTA solution (Sigma) at 37° C. for 2 minutes. Trypsin was inactivated by suspending the cells in medium containing 10% fetal bovine serum (Sigma). The cells were pelleted at 250×g and resuspended in Hanks' Balanced Salt Solution. Viable cells, cells that excluded 0.4% trypan blue (GIPCOBRL), were counted with a hemocytometer; 24 hour cell counts were deducted from final cell counts to provide an estimate of the net increase in cell number.
FIG. 1 is a representative evaluation of the dose-dependent impact of five different tocols on the proliferation of melanoma B16 cells. Cultures (3 mL) seeded with 1-1.5×10^5 cells were incubated for 24 hours prior to the introduction of the tocols. Viable cells were counted at 48 hours following the addition of the tocols. The cell count at 24 hours (0 time) is shown by the dashed line. The intersection of the solid horizontal line and the line plotted for each tocol indicates the concentration at which the tocol suppressed by 50% the increase in cell number during the incubation (IC50 value). IC50 values (mean, SD and n) for all isoprenoids tested are listed on Table 1. […] The growth-suppressive potency of the individual tocotrienols was inverse to the number of methyl groups on the 6-chromanol ring: d-α-tocotrienol (methyl groups at carbons 5, 7, 8 and 2)<<d-γ-tocotrienol (methyl groups at carbons 7, 8 and 2)<d-δ-tocotrienol (methyl groups at carbons 8 and 2)<<d-2-desmethyl tocotrienol (no methyl groups) (Table 1).

[2] = test system: implanted 216 melanomas; details: massive intake, 733 μmol/d; Meadows, et al., 1991; cited from earlier work
[3] = test system: B16(F10) melanoma; details: for retardation in tumor growth: 10 days prior to and 28 days following implantation, P<0.05
Experimental: The first examined the impact of a diet-relevant intake of d-γ-tocotrienol on the growth of B16(F10) melanomas in host mice. […] We first prepared a basal diet mix, patterned after the AIN-76A formulation (American Institute of Nutrition, 1977) but free of corn oil and dl-α-tocopherol. These ingredients and Vitamin E-stripped corn oil were purchased from Teklad Test Diets, Madison, Wis. Stock solutions of dl-α-tocopherol (80 μmol/g) and d-γ-tocotrienol (80 μmol/g) were prepared with vitamin E-stripped corn oil. Stock solutions of the tocols, diluted with vitamin E-stripped corn oil, were mixed with the basal diet to provide finished diets containing 5% corn oil and specified tocol concentrations. Where noted, β-ionone was added to the oil. The diets, mixed weekly, were stored under refrigeration. Food cups were cleaned and refilled daily.
Experiment 1: Weanling C57BL female mice (Harlan-Sprague Dawley, Madison, Wis.) were housed in groups of four on wood shavings in plastic cages and maintained at 25° C. with a 12 hour light-dark cycle. The four groups of mice (20/group) were fed experimental diets for 10 days prior to and for 28 days following the implantation of B16 melanoma cells. The split plot design consisted of four treatments comprised of two tocols, dl-α-tocopherol and d-γ-tocotrienol, each presented at two levels, 116 and 924 μmol/kg diet. This design permitted two comparisons of diets equal in tocol content and one comparison of diets about equal in d-α-tocopherol equivalents. […] We then corrected for the biological activity of the dl-α-tocopherol mixture (70% of the activity of d-α-tocopherol) in arriving at the 8:1 tocotrienol/tocopherol ratio used in formulating the experimental diets. Melanoma cells, cultured and harvested as previously, described (Shoff, et al., 1991), were washed twice with RPMI 1640 containing 10% Fetal Bovine Sera (GIBCOBRL). The pelleted cells were suspended in RPMI 1640 and counted (98% viable) after a 1:20 dilution in 0.4% trypan blue. The cells were further diluted in RPMI 1640 (1×10^8 cells/L) and 0.1 mL of the suspension (1×10^4 cells) was injected subcutaneously into the flank of each mouse. […] The mice were killed by CO2 overdose and the tumors were excised and weighed.
Statistical Methods: StatView and SuperANOVA software (Abacus Concepts, Berkeley, Calif.) were used for the assessment of treatment-mediated effects. Treatment-mediated differences in body and tumor weights, days to tumor appearance and days to morbidity were identified with split plot analysis of variance and pairwise t-tests of least squares means. Treatment-mediated differences in days to morbidity were also assessed using parametric (paired t-test) and nonparametric (Wilcoxon signed rank) tests (Haycock, et al., 1992).
The first dietary study evaluated the impact of d-γ-tocotrienol and dl-α-tocopherol on days to detection of a solid tumor and growth of implanted B16 melanomas.

[4] = test system: B16 melanoma cells; experiment: Paired isoprenoids, 48 hour cell count (FIG. 2A, 2B); format: cell-based, Murine
Experimental: as §1
We next determined that the effects of the isoprenoids on the growth of B16 melanoma cells in culture are additive, and in some cases, synergistic. FIG. 2A illustrates the additive effects of γ-tocotrienol and β-ionone on B16 melanoma cell populations. Values are means±SD, n=28; pooled SEM=36 (×10^4). Cell counts calculated to show the decreased population relative to the control are listed on the insert table.
FIG. 2B illustrates the additive effects of carvacrol and β-ionone on B16 melanoma cell populations. Values are means±SD, n=28; pooled SEM=62 (×10^4). Cell counts calculated to show the decreased population relative to the control are listed in the inset table. ^a-hMeans not sharing a superscript (a>b>c>d>e>f>g>h) are different (P<0.001). Referring to FIG. 2, B16 melanoma cells were incubated with β-ionone and d-γ-tocotrienol in one test (FIG. 2A). d-γ-Tocotrienol (7.5 μmol/L) and β-ionone (50 μmol/L) reduced the 48 hour cell count by 19% and 10% respectively (FIG. 2A). The 34% reduction in cell number achieved with the paired isoprenoids exceeded the 29% reduction predicted by the sum of the individual effects (FIG. 2A, inset). At higher concentrations d-γ-tocotrienol (15 μmol/L) and β-ionone (100 μmol/L) reduced the 48 hour cell count by 34% and […] respectively; the additive effect, a 68% reduction in cell number, was also greater than the sum of the individual effects (59%) (FIG. 2A, inset).
Carvacrol (50 μmol/L) and β-ionone (75 μmol/L) reduced the 48 hour cell count by 25% and 31% respectively; the additive effect, a 48% reduction in cell number, was less than the 56% reduction predicted by the sum of the individual effects. Carvacrol (100 μmol/L) and β-ionone (150 μmol/L) reduced the cell count by 35% and 65% respectively; the additive effect, an 84% reduction in cell number, again was less than the 100% reduction predicted by the sum the individual effects (FIG. 2B, inset). The reduction in cell number predicted by the sum of the individual effects of the isoprenoids was highly correlated with that achieved with the paired isoprenoids (r=0.91, n=8, P<0.01).

[5] = ubiquinone given to patients receiving 30 mg/kg or higher doses of lovastatin; cited from earlier work
[6] = test system: implanted murine melanoma B16F10 tumors; details: cited from earlier work
[7] = test system: established implanted B16 melanoma; experiment: Experiment 2: isoprenoid-enriched diets, survival of mice bearing established melanomas; format: in vivo, C57BL female mice; details: for Days survival, Mean / Days survival, Median: n = 12; for growth of established B16 melanomas: diet providing 7 μmol/d; for duration of host survival: experimental diets versus control, P<0.03
Experimental: Where noted, β-ionone was added to the oil. The diets, mixed weekly, were stored under refrigeration. Food cups were cleaned and refilled daily.
Experiment 2: Weanling female C57BL female mice (n=60, Harlan Sprague-Dawley) were acclimated to the housing conditions and AIN-76A diet (116 μmol dl-α-tocopherol/kg diet) as described above. Tumors were implanted and the mice continued to receive the AIN-76A diet. Beginning on day 8 post-implant the mice were palpated daily for the presence of a tumor. Tumors were first detected on day 14. Random numbers were generated for assigning each mouse in a sequential subset of five to a diet. Experimental treatments provided 2 and 4 mmol d-γ-tocotrienol/kg diet. We additionally tested the impact of β-ionone (2 mmol β-ionone/kg AIN-76A diet) and that of a blend of the two isoprenoids (2 mmol each/kg diet) on the survival of the mice.
We then asked if either dietary d-γ-tocotrienol or β-ionone would prolong the survival of mice bearing implanted melanomas. Dietary treatments were initiated following the detection of solid tumors. We also asked whether these structurally diverse isoprenoids would have an additive effect on survival. The experimental groups were constructed by random assignment of each member of successive subsets of 5 mice to one of the experimental diets. […] Treatments increased median duration of survival by 42±4.5% and the mean duration of survival by 30% (P<0.005); differences between duration of survival means of the experimental groups were not significant (Table 3, FIG. 3). FIG. 3 is a survival curve for host mice receiving isoprenoid-enriched diets following the detection of a solid implanted B16 melanoma. Mean survival durations are presented on Table 4. β-ionone and γ-tocotrienol^1 treatments provided 2 mmol of the isoprenoid/kg diet; the blend provided 2 mmol of each isoprenoid/kg diet; and γ-tocotrienol^2 provided 4 mmol γ-tocotrienol/kg diet.

[8] = test system: Murine B16(F10) melanoma cells; details: L. He, et al., J. Nutr. 1997; read-out: IC50, proliferation of murine melanoma B16/F10 cells; cited from earlier work
[9] = test system: murine melanoma B16/F10 cells; experiment: In vitro growth assays of lovastatin, β-ionone and γ-tocotrienol alone and combined (Table 5); format: cell-based
[10] = read-out: IC50: concentration required to suppress the increase in the population of melanoma cells by 50% during a 48 hour incubation; 48 hour incubation; means ± SD
[11] = 48 hour incubation; means ± SD; read-out: IC50: concentration required to suppress the increase in the population of melanoma cells by 50% during a 48 hour incubation

Structure (SMILES): C=C(C)C1CC=C(C=O)CC1 (stereo not drawn) [Perillaldehyde, [R]-4-isopropenyl-1-carboxaldehyde cyclohexene]
- IC50 [1, 10]: 120 ± 17 µM

Structure (SMILES): C=C(C)[C@H]1CC=C(C)CC1 [d-Limonene, [R]4-isopropenyl-1-methyl-1-cyclohexene]
- IC50 [1, 11]: 450 µM

Structure (SMILES): O=C1O[C@H]([C@@H](O)CO)C(O)=C1O [ascorbic acid]
- growth of implanted melanomas [2]: suppressed

Structure (SMILES): Cc1c(C)c2c(c(C)c1O)CCC(C)(CCCC(C)CCCC(C)CCCC(C)C)O2 (stereo not drawn) [d1-α-Tocopherol, 2,5,7,8-tetramethyl-2-(4,8,12-trimethyltridecyl)-chroman-6-ol]
- IC50 [1, 10]: > 1600 µM
- impact on cell number (FIG. 1) ([1]; viable cells at 48 hours after addition): no impact on cell number
- body weight at the time of tumor implant ([3]; mouse, in vivo): significantly lower

Structure (SMILES): CC(C)=CCCC(C)=CCCC(C)=CCCC1CCc2cc(O)ccc2O1 (stereo not drawn) [d-2-desmethyl Tocotrienol, 2-(4,8,12-trimethyltrideca-3,7,11-trienyl)-chroman-6-ol]
- IC50 [1, 11]: 0.9 µM

Structure (SMILES): Cc1ccc(C(C)C)cc1O [Carvacrol, 5-isopropyl-2-methylphenol, reference compound]
- IC50 [1, 10]: 120 ± 15 µM
- reduction of 48 hour cell count ([4]; 50 μmol/L): 25%
- reduction of 48 hour cell count ([4]; 100 μmol/L): 35%

Structure (SMILES): C=C(C)[C@@H]1CC=C(CO)CC1 [Perillyl alcohol, [R]4-isopropenyl-1-methanol-cyclohexene]
- IC50 [1, 11]: 250 µM

Structure (SMILES): Cc1ccc(C(C)C)c(O)c1 [Thymol, 5-methyl-2-isopropylphenol]
- IC50 [1, 11]: 120 ± 15 µM

Structure (SMILES): COC1=C(OC)C(=O)C(C/C=C(\C)CC/C=C(\C)CC/C=C(\C)CC/C=C(\C)CC/C=C(\C)CC/C=C(\C)CC/C=C(\C)CC/C=C(\C)CC/C=C(\C)CCC=C(C)C)=C(C)C1=O [Ubiquinone]
- incidence of musculoskeletal toxicity of lovastatin [5]: did not decrease
- severity of musculoskeletal toxicity of lovastatin [5]: significantly decreased

Structure (SMILES): CC(C)=CCC/C(C)=C/CO [Geraniol, trans 3,7-dimethyl-2,6-octadien-1-ol]
- IC50 [1, 11]: 150 ± 19 µM

Structure (SMILES): CC(C)=CCCC(C)=CCCC(C)=CCCC1(C)CCc2cc(O)c(C)c(C)c2O1 (stereo not drawn) [d-γ-Tocotrienol, 2,7,8-trimethyl-2-(4,8,12-trimethyltrideca-3,7,11-trienyl)-chroman-6-ol]
- growth of implanted murine melanoma B16F10 tumors ([6]; 116-2000 μmol/kg diet): suppressed
- IC50 [1, 10]: 20 µM
- reduction of 48 hour cell count ([4]; 7.5 μmol/L): 19%
- reduction of 48 hour cell count ([4]; 15 μmol/L): 34%
- further change in duration of survival on doubling the intake ([7]; 14 μmol/d versus 7 μmol/d, P=0.95): -0.21 days
- Days survival, Mean ([7]; 2 mmol/kg diet): 18.67^a Days
- Days survival, Median ([7]; 2 mmol/kg diet): 20.0 days
- Days survival, Mean ([7]; 4 mmol/kg diet): 18.46^a Days
- Days survival, Median ([7]; 4 mmol/kg diet): 22.0 days
- growth of established B16 melanomas [7]: suppressed
- increase in duration of survival ([7]; diet providing an intake of 7 μmol/d): 35%
- duration of host survival [7]: significantly increased
- IC50 [8]: 20 µM
- retardation in tumor growth ([3]; 116 μmol/kg diet, isomolar substitution for dl-α-tocopherol in AIN-76A diet): 36%
- retardation in tumor growth ([3]; 928 μmol/kg diet, Vitamin E-equivalent substitution for dl-α-tocopherol in AIN-76A diet): 50%
- days post-implant to tumor detection ([3]; 928 μmol/kg diet, least mean squares analysis): differed significantly from the effects of the other treatments
- 28 day tumor weight, least mean squares analyses ([3]; 116 and 928 μmol/kg diet): tumor growth-suppressive action
- growth of the B16 melanoma implanted in the flank of host mice ([3]; diet providing an intake of 0.4 μmol/d (diet-relevant intake)): suppressed
- suppression of tumor growth ([3]; diet providing only the d-α-tocopherol-equivalent of the AIN-76A diet): highly significant suppression
- Growth ([9]; 5 μmol/L): 90 % of Control
- Growth ([9]; 7.5 μmol/L): 81 % of Control
- Growth ([9]; 10 μmol/L): 85 % of Control and 72 % of Control
- Growth ([9]; 15 μmol/L): 66 % of Control and 77 % of Control
- Growth ([9]; 20 μmol/L): 65 % of Control

Structure (SMILES): CC(C)=CCCC(C)=CCCC(C)=CCCC1(C)CCc2c(C)c(O)c(C)c(C)c2O1 (stereo not drawn) [d-α-Tocotrienol, 2,5,7,8-tetramethyl-2-(4,8,12-trimethyltrideca-3,7,11-trienyl)-chroman-6-ol]
- IC50 [1, 11]: 110 µM

Structure (SMILES): CC(C)=CCCC(C)=CCCC(C)=CCCC1(C)CCc2cc(O)cc(C)c2O1 (stereo not drawn) [d-δ-Tocotrienol, 2,8-dimethyl-2-(4,8,12-trimethyltrideca-3,7,11-trienyl)-chroman-6-ol]
- IC50 [1, 11]: 10 µM

Structure (SMILES): CC(C)=CCC/C(C)=C/CC/C(C)=C/CO [Farnesol, trans, trans 3,7,11-trimethyl-2,6,10 dodecatrien-1-ol]
- IC50 [1, 11]: 50 µM

Structure (SMILES): CC(=O)C=CC1=C(C)CCCC1(C)C [β-Ionone]
- growth of implanted murine melanoma B16F10 tumors ([6]; 2 mmol/kg diet): suppressed
- IC50 [1, 11]: 140 ± 23 µM
- reduction of 48 hour cell count ([4]; 50 μmol/L): 10%
- reduction of 48 hour cell count ([4]; 75 μmol/L): 31%
- reduction of 48 hour cell count ([4]; 100 μmol/L): 16%
- reduction of 48 hour cell count ([4]; 150 μmol/L): 65%
- Days survival, Mean ([7]; 2 mmol/kg diet): 18.27^a Days
- Days survival, Median ([7]; 2 mmol/kg diet): 23.0 days
- growth of established B16 melanomas [7]: suppressed
- duration of host survival [7]: significantly increased
- IC50 [8]: 140 µM
- Growth ([9]; 50 μmol/L): 90 % of Control
- Growth ([9]; 100 μmol/L): 84 % of Control
- decrease in cell growth ([9]; 150 μM): 32%
- Growth ([9]; 150 μmol/L): 68 % of Control
